Measured values taken from PMC7961618, “Inhibitor Development against p7 Channel in Hepatitis C Virus” (Molecules, 2021).
pKd: −log10 of the molar value. Read-outs that look alike come from different tables or passages of the source.

Columns and labels:
[1] = target: p7 (5a) protein (Hepatitis C virus genotype 5a (Hepacivirus hominis), UniProt O39928, A759S/C749A/C774T/C791S/T748G); test: NMR titration (2D 1H-15N TROSY-HSQC chemical shift perturbation) for Kd; assay type: binding; details: for pKd: read-out: Kd GT5a
[2] = test system: HCV (JFH1 strain with adaptive mutations); assay type: cell-based; details: for viral production kinetics versus mock control: 20 μM, supernatant at 2, 6, 12 and 24 h post-incubation; for IC50 against HCV compared with Rim: Huh7.5.1 cells, JFH1, 12 h
[3] = test system: Huh7.5.1 cells; test: CellTiter-Glo cell viability and cytotoxicity assay; details: 12 h incubation
Procedure: (§1) (B) After incubation with each compound, the cell viability and cytotoxicity were detected by CellTiter-Glo® Luminescent Cell Viability Assay reagent (Promega GS7570, Madison, WI, USA). […] Data were presented as the percentage of mock treatment control. […] Two independent experiments were repeated showing similar results.
(§2) Cell viability and cytotoxicity were detected by CellTiter-Glo® Luminescent Cell Viability Assay reagent (Promega GS7570, Madison, WI, USA). Briefly, Huh7.5.1 cells were seeded at a density of 80,000 cells per well in 24-well microplates and allowed to attach and grow overnight. The next day, the cell-culture media with serially diluted compounds in 0.5% DMSO or mock were added to the cells. After 12 h of incubation, cells were collected and lysed for the cell cytotoxicity assay.

[4] = as above; details: human, Huh7.5.1 cells
Procedure: as §1, §2

[5] = test system: HCV genotype 3; set-up: method as in PMID 27783808; details: cited from earlier work
[6] = test system: HCV; set-up: method as in PMID 18828153; details: cited from earlier work
[7] = test system: hepatoma cell lines; set-up: method as in PMID 18828153; details: cited from earlier work
[8] = apparent Kd from chemical shift changes of Val7 or Leu8, 0.1 mM 15N-p7 (5a) in 20 mM DPC, 30 °C

p7 (5a) protein, sequence (O39928 748-810 T748G/C749A/A759S/C774T/C791S): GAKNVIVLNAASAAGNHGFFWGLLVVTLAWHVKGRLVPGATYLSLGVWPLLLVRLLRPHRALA

Compound | pKd [1, 8] | other results
CCNC(C)C12CC3CC(CC(C3)C1)C2 (stereo not shown) [ARD1] | 3.31 | –
CCC(NC)C12CC3CC(CC(C3)C1)C2 (stereo not shown) [ARD2] | 3.48 | –
CNC(CO)C12CC3CC(CC(C3)C1)C2 (stereo not shown) [ARD6] | 3.46 | –
CNC(C(N)=O)C12CC3CC(CC(C3)C1)C2 (stereo not shown) [ARD8] | 3.15 | –
CNC(=O)C(NC)C12CC3CC(CC(C3)C1)C2 (stereo not shown) [ARD9] | 3.38 | –
NC(C(F)F)C12CC3CC(CC(C3)C1)C2 (stereo not shown) [ARD71] | 2.61 | –
NC(CNC(=O)CCOCCOCCOCCC(=O)NCC(N)C12CC3CC(CC(C3)C1)C2)C12CC3CC(CC(C3)C1)C2 (stereo not shown) [ARD80] | 3.99 | –
NC(CNC(=O)CCOCCOCCOCCOCCC(=O)NCC(N)C12CC3CC(CC(C3)C1)C2)C12CC3CC(CC(C3)C1)C2 (stereo not shown) [ARD81] | 4.09 | –
NC(CNC(=O)CCOCCOCCOCCOCCOCCOCCC(=O)NCC(N)C12CC3CC(CC(C3)C1)C2)C12CC3CC(CC(C3)C1)C2 (stereo not shown) [ARD83] | 4.15 | –
NC(CNC(=O)CCOCCOCCOCCOCCOCCOCCOCCC(=O)NCC(N)C12CC3CC(CC(C3)C1)C2)C12CC3CC(CC(C3)C1)C2 (stereo not shown) [ARD84] | 4.24 | –
NC(CNC(=O)CCOCCC(=O)NCC(N)C12CC3CC(CC(C3)C1)C2)C12CC3CC(CC(C3)C1)C2 (stereo not shown) [ARD87] | – | pKd [1]: 4.37; viral production kinetics versus mock control [2]: suppress the viral production; IC50 against HCV compared with Rim [2]: about two-fold lower than that of Rim; cytotoxicity compared with Rim [3]: significantly higher than Rim
Oc1ccc(CNC23CC4CC(CC(C4)C2)C3)c(O)c1 [ARD89] | 3.95 | –
OCC1(CNCc2cc(-c3ccccc3)on2)C2CC3CC(C2)CC1C3 (stereo not shown) [ARD98] | 3.99 | –
Cc1cc(CNCC2(CO)C3CC4CC(C3)CC2C4)ccn1 (stereo not shown) [ARD99] | 3.07 | –
Cc1ccc(CNCC2(CO)C3CC4CC(C3)CC2C4)cn1 (stereo not shown) [ARD100] | 3.97 | –
OCC1(CNCc2cc(C3CC3)on2)C2CC3CC(C2)CC1C3 (stereo not shown) [ARD101] | 3.98 | –
CC1(NCc2nnc(-c3cc(O)cc(O)c3)[nH]2)C2CC3CC(C2)CC1C3 (stereo not shown) [ARD112] | 5.30 | binding strength relative to the best dimeric compound ARD87 ([1]; from NMR Kd values, p7 (5a)): ~ 10 fold; viral production kinetics versus mock control [2]: suppress the viral production; IC50 against HCV compared with Rim [2]: about two-fold lower than that of Rim; CC50 at 12 h [4]: > 100 µM; cytotoxicity compared with Rim [3]: comparable to Rim
NC12CC3CC(CC(C3)C1)C2 [Amantadine] | – | inhibition of genotype 3 [5]: could not inhibit genotype 3
CC(N)C12CC3CC(CC(C3)C1)C2 (stereo not shown) [Rimantadine, reference compound] | – | pKd [1]: 4.01; viral production kinetics versus mock control [2]: suppress the viral production; anti-HCV activity [6]: moderate anti-HCV activity; cytotoxicity against hepatoma cell lines [7]: no significant cytotoxicity; CC50 at 12 h [4]: > 100 µM
